pIC50: −log10 of the molar value. ≈ marks a conversion by molar mass, not a printed value. Entries after “also recorded” stand apart in the source; their conditions may differ. Like-named read-outs stand apart in the source and are kept apart here.

Data set [1] has as its system trans-translation. The settings on record: dose response assay; Ramadoss et al., PNAS 2013; cited from earlier work.
The subject of data set [2] is mammalian systems. The settings on record: even in the context of prolonged exposure; cited from earlier work.
The nature of data set [3]: Stability in liver microsomes in vitro. The settings on record: mouse or human liver microsomes in vitro; data not shown. (In general: Liver microsomes are vesicles of endoplasmic reticulum, rich in cytochrome P450 enzymes.)
The nature of data set [4]: Preliminary PK studies in mice. Conditions: IV or IP dosing at 10 mg/kg, data not shown.
Data set [5] deals with translation. The settings on record: specific inhibitor of trans-translation; cited from earlier work.
For data set [6], the system named is E. coli TolC(−). Conditions: MIC in the presence of 10% fetal calf serum versus without.
For data set [7], the system named is M. pneumoniae 15531. In kind it is cell-based. The settings on record: Mycoplasmoides pneumoniae.
The subject of data set [8] is MRSA USA 300 (BAA-1717). The class given is cell-based. The settings on record: Staphylococcus aureus.
Data set [9] concerns S. aureus ATCC 25923 (MSSA. osteomyelitis isolate). The class given is cell-based. The settings on record: Staphylococcus aureus.
Data set [10] is described as follows: Caco-2 permeability. In kind it is in vitro ADME. Conditions: human, direction not given. From the text:
Res., 15(5): 726-733 (1998).

Data set [11] relates to S. pneumoniae 49619. In kind it is cell-based. The settings on record: Streptococcus pneumoniae.
Data set [12] relates to Yersinia pestis. Description: microbe, parasite or virus in culture. In kind it is cell-based.
The subject of data set [13] is N. gonorrhoeae. Description: MIC90 determination, clinical isolates. The settings on record: Neisseria gonorrhoeae. In kind it is cell-based.
Data set [14] relates to MRSA-1094 (MDR). The class given is cell-based. The settings on record: Staphylococcus aureus, MRSA.
In data set [15] the test system is B. anthracis. Description: microbe, parasite or virus in culture. The class given is cell-based. The settings on record: Bacillus anthracis.
The test system of data set [16] is Haemophilus influenza 35056. In kind it is cell-based.
Data set [17] is described as follows: Mammalian cell cytotoxicity.
Data set [18] has as its system S. aureus NRS-77 (spec-res). In kind it is cell-based. The settings on record: Staphylococcus aureus, NRS77.
Data set [19] relates to Franciscella tularensis. Description: organism not typed. In kind it is cell-based.
Data set [20] concerns S. aureus (MRSA-1234547263, Cip-res). The class given is cell-based. The settings on record: Staphylococcus aureus, MRSA.
Data set [21] deals with S. aureus (ATCC 35556, spec, kan-res). In kind it is cell-based. Conditions: Staphylococcus aureus, ATCC35556.
The test system of data set [22] is Brucella suis. Briefly: microbe, parasite or virus in culture. In kind it is cell-based.
The test system of data set [23] is MRSA N315 NRS-70. The class given is cell-based. Conditions: Staphylococcus aureus.
In data set [24] the test system is N. gonorrhoeae H041 (MDR including AZM and CTX). In kind it is cell-based. The settings on record: Neisseria gonorrhoeae.
Data set [25] relates to E. coli (700, TolC+) efflux pos. In kind it is cell-based. The settings on record: Escherichia coli.
In data set [26] the test system is Moraxella catarrhalis 8176. The class given is cell-based.
The test system of data set [27] is N. gonorrhoeae 49226. The class given is cell-based. The settings on record: Neisseria gonorrhoeae.
Data set [28] deals with Franciscella tularensis (Schu13). Briefly: organism not typed. In kind it is cell-based.
Data set [29] can be described thus: Mouse serum stability. The settings on record: 5 μM, 37° C., 4 h.
Data set [30] relates to Legionella pneumophila 33153. Briefly: microbe, parasite or virus in culture. In kind it is cell-based.
Data set [31] concerns E. coli TolC(−). Briefly: TolC(−) MIC (NB). The settings on record: Escherichia coli, read-out: TolC(−) MIC (μM)(NB). In kind it is cell-based.
Data set [32] can be described thus: Microsomal stability + NADPH. The settings on record: mouse liver microsomes, 0.5 hr at 37° C.
For data set [33], the system named is S. aureus WTBF-19 (MSSA. osteomyelitis isolate). The class given is cell-based. Conditions: Staphylococcus aureus, MSSA.
The nature of data set [34]: Aqueous solubility, nephelometry. The settings on record: water, kinetic from dmso stock.
The nature of data set [35]: Mouse serum binding, equilibrium dialysis. (In equilibrium dialysis only unbound substance equilibrates across the membrane.)

The pIC50 is the IC50 on a negative log10 scale, so that one unit is a factor of ten. On to `O=C(Nc1nnc(-c2ccc(F)cc2)o1)c1ccc(Cl)cc1` [KKL-35], for which, in [1], the pIC50 is 6.05. Also, in [2], the cytotoxicity entry is listed as “lack of cytotoxicity”. Further, in [3], the “stability in the presence of liver microsomes” value is recorded as “poor microsomal stability; also recorded: no detectable material after 5 min”. In data set [4], the bioavailability in mice entry is “extremely poor bioavailability; also recorded: undetectable in mouse serum at 6 h”. Further, the effect on translation result in data set [5] is “no effect on translation”.

What is called Papp is a coefficient for how fast a substance crosses the barrier. A word on the MIC90: it is the lowest concentration that inhibits either 90% of growth or 90% of the strains tested, depending on the study. Lower therefore signals greater potency. As usually defined, the CC50 is the concentration that lowers cell viability or growth by half. As a reminder, the solubility is the concentration that dissolves in the medium under given conditions. Consider `O=C(Nc1nnc(-c2ccc(F)cc2)o1)N1CCc2ccccc2C1` [compound 4132, N-[5-(4-fluorophenyl)-1,3,4-oxadiazol-2-yl]-3,4-dihydroisoquinoline-2(1H)-carboxamide], for which, in data set [6], the “Fold Serum Shift vs. TolC(−)” value is reported as 12.7 fold. Also, the MIC in [7] (15531) was above 33.8 µg/mL; in data set [8], 1.06 µg/mL (≈ 3.13 µM); in data set [9] it was 6.34 µg/mL (≈ 18.7 µM); in data set [11] (49619) it was 33.8 µg/mL (≈ 99.9 µM); in data set [12], 8.46 µg/mL (≈ 25 µM); in [14], 3.17 µg/mL (≈ 9.37 µM). For the same molecule, the MIC worked out at 4.06 µg/mL (≈ 12 µM) in data set [15]; 16.9 µg/mL (≈ 50 µM) in data set [16] (Haemophilus, 35056); 3.17 µg/mL (≈ 9.37 µM) in [18]; 3.17 µg/mL (≈ 9.37 µM) in [20]; 4.23 µg/mL (≈ 12.5 µM) in [21]; 4.23 µg/mL (≈ 12.5 µM) in data set [22]. Further, the MIC was 6.34 µg/mL (≈ 18.7 µM) in data set [23]; 0.13 µg/mL (≈ 0.384 µM) in [24]; above 35 µg/mL in data set [25]; 0.034 µg/mL (≈ 0.1 µM) in data set [26]; 0.18 µg/mL (≈ 0.532 µM) in data set [27] (49226); 0.13 µg/mL (≈ 0.384 µM) in data set [28]. Also, the MIC amounted to 8.46 µg/mL (≈ 25 µM) in [30], 7.87 µM (≈ 2.66 µg/mL) in [31] and 4.23 µg/mL (≈ 12.5 µM) in data set [33]. In [10], the Papp was 65.8 ×10⁻⁶ cm/s. The values for the MIC90 in data set [13] and in data set [19] were 0.54 µg/mL (≈ 1.6 µM) and 0.13 µg/mL (≈ 0.384 µM), respectively. Moreover, the half-maximal cytotoxic concentration (CC50) in data set [17] was 27.2 µM. The “Serum Stability (% remain)” value in data set [29] was above 95%. For the same molecule, in data set [32], the “Microsomal Stability + NADPH % degraded” value worked out at 27%. Further, the solubility in data set [34] stood at 6.25 µM (≈ 2.11 µg/mL).

In general, fraction unbound refers to the share of the substance not bound to proteins or other matrix. Low readings indicate little free substance, high ones much free substance. For the molecule `O=C(Nc1nnc(-c2ccc(F)cc2)o1)c1ccc(Oc2ccccc2)nc1` [compound 4237, 2-(6-phenoxynicotinamido)-5-(4-fluorophenyl)-1,3,4-oxadiazole], the MIC in data set [7] (M. pneumoniae 15531, read-out: MIC) turned out to be 18.8 µg/mL (≈ 50 µM); in data set [8] (MRSA USA 300 (BAA-1717), read-out: MIC), 2.1 µg/mL (≈ 5.58 µM); in data set [9], 2.35 µg/mL (≈ 6.24 µM); in data set [11] (S. pneumoniae 49619, read-out: MIC) it was 4.7 µg/mL (≈ 12.5 µM); in data set [14], 2.35 µg/mL (≈ 6.24 µM); in data set [16] (Haemophilus influenza 35056, read-out: MIC) it was 9.41 µg/mL (≈ 25 µM). Moreover, the MIC in data set [18] (S. aureus NRS-77 (spec-res), read-out: MIC) is 2.96 µg/mL (≈ 7.87 µM); in [20], 2.35 µg/mL (≈ 6.24 µM); in data set [21] it was 2.35 µg/mL (≈ 6.24 µM); in data set [23] (MRSA N315 NRS-70, read-out: MIC), 4.7 µg/mL (≈ 12.5 µM); in data set [25] (E. coli (700, TolC+) efflux pos, read-out: MIC), above 39 µg/mL; in data set [26] (read-out: MIC) it was 0.06 µg/mL (≈ 0.159 µM). For the same molecule, the MIC in [27] (N. gonorrhoeae 49226, read-out: MIC) came out at 0.75 µg/mL (≈ 1.99 µM); in [28], 0.75 µg/mL (≈ 1.99 µM); in [30] it was 0.87 µg/mL (≈ 2.31 µM); in data set [31], 1.56 µM (≈ 0.588 µg/mL); in data set [33] it was 2.35 µg/mL (≈ 6.24 µM). For the same molecule, the Papp in data set [10] turned out to be 12.7 ×10⁻⁶ cm/s. The same molecule registered a CC50 in [17] above 100 µM. In [19], this molecule showed an MIC90 of 1.51 µg/mL (≈ 4.01 µM). For the same molecule, the “Serum Stability (% remain)” value in data set [29] was above 95%. Besides, the “Microsomal Stability + NADPH % degraded” value in data set [32] worked out at 9%. This molecule had an unbound share (fraction unbound) in data set [35] of 0.002. In data set [34], this molecule registered a solubility of 6.25 µM (≈ 2.35 µg/mL).

Values taken from patent US11505533B2, “Metabolically stable N-acylaminooxadiazoles useful as antibacterial agents” (MICROBIOTIX, INC., priority 2017, dated 2022).
